Source: patent publication USRE36744E, “Nasal administration of benzodiazepine hypnotics” (Ribogene, Inc., priority 1994, dated 2000)
Where “and” joins values, the source holds several entries; their conditions need not be identical. Equal entries are not always repeated.

Experiments:
[1] = Comparative oral versus nasal pharmacokinetics of flurazepam in dogs (plasma, GC assay); type: in vivo, beagle dogs
Method: The efficacy of oral versus nasal administration was examined using the methodology of Example 2.
Oral Administration Studies: Fifteen mg of flurazepam HCl solution was given to each dog with 50 ml of water. […] The plasma samples were stored frozen until GC assay for flurazepam.
Nasal Administration Studies: One hundred and twenty milligrams of flurazepam HCl powder was dissolved in 4 ml of distilled water. […] Air bubbles generated during mixing were eliminated by centrifugation. The pH of the solution was 1.82.
Flurazepam solution was sprayed into both nostrils of the dogs. The dose given to the dogs was 14.5, 12.4, 12.1 and 12.5 mg as flurazepam HCl. Blood sampling times were same as in the oral study. The plasma samples were frozen until GC assay for flurazepam.
Five ml of hexane was then added and the mixture was vortexed together for one min. and centrifuged for 4 minutes. Four ml of the upper organic layer was then pipetted. Fifty μl of hexane/isoamyl alcohol was used for reconstitution.
Flurazepam in plasma was assayed by a Hewlett Packard model 5830A GC-EC. […] The temperatures for column, injector port and detector were 250°, 310° and 310° C., respectively. The flow rate for argon/methane (95:5) gas was 33 ml/min.

Wistar rats = assay: Oral versus nasal hypnotic efficacy in rats (duration of sleeping time, loss and reappearance of the righting reflex); type: in vivo
Method: A variety of hypnotics including chloral hydrate, sodium pentobarbital and flurazepam were administered to Wistar rats to compare the efficacy of oral and nasal administration.
Oral Administration Studies: The subjects were fasted for approximately 18 hours; water was available ab libitum. Aqueous solutions of chloral hydrate obtained from Sigma Chemical Co., Ltd. and sodium pentobarbital were separately administered to groups of the subject rats using a constant dose volume of […]. Different dosage levels were obtained by varying the aqueous concentrations of therapeutic drug to identify an effective amount of hypnotic.
The animals were then placed in a constant temperature environment of 32° C. The duration of sleeping time (measured by the loss and reappearance of the righting reflex) was recorded for each animal. The results within each group were then averaged.
Nasal Administration Studies: The methodology of the oral studies was repeated with substitution of nasal administration of aqueous solutions through a fine catheter inserted into the nostril. The therapeutic drug was dosed at a constant volume of 50 μl which would deliver an amount of the hypnotic which would be orally effective.

[2] = Comparative oral versus nasal pharmacokinetics of midazolam in dogs (plasma, GC assay); type: in vivo, beagle dogs; details: for half-life / Tmax / Cmax: dog, plasma
Method: Air bubbles generated during mixing were removed by centrifugation.
The dose given to each dog was 7.85, 7.89, 7.22, 5.61 mg free base.
GC Assay--for extraction, 0.5 ml of plasma, 100 μl of internal standard (100 ng/ml flurazepam in methanol) and 0.5 ml of 2N sodium hydroxide were vortexed for 5 seconds. Five ml of hexane was then added and the mixture was vortexed for one min. and centrifuges for 4 minutes. […] Fifty μl of hexane/isoamyl alcohol (80:20) was used for reconstitution.
The temperatures for column, injector port and detector were 250°, 310° and 310° C., respectively. The flow rate for argon/methane (95:5) gas was 33 ml/min.

[3] = Comparative oral versus nasal pharmacokinetics of triazolam in beagle dogs (plasma, GC assay); details: for Cmax / half-life / Tmax: dog, plasma
Method: In two comparative studies separated in time by over one week; four healthy male, 2-3 year old beagle dogs received oral and nasal doses of triazolam. They were fasted overnight before each study and food was withheld until the end of the experiment. They were restrained in a dog sling during the studies while blood (3 ml) was withdrawn from each dog through a cannula inserted into the cephalic vein.
Oral Administration Studies: Two 0.5 mg triazolam tablets were given to each dog with 50 ml of water. Blood samples were taken from the cephalic vein at 0 min before administration and 15, 30, 45, 60, 120, 180, 240, 300, 360 and 420 min after administration. The plasma samples were stored frozen until gas chromotographic assay for triazolam.
Nasal Administration Studies: Thirty milligrams of triazolam powder was dissolved in 5 ml of PEG 400 warmed at 55°-60° C. After the solution was cooled to room temperature, an equal volume of 1% methocel J5MS (Dow Chemical Company, Midland, Mich.) solution was mixed with the triazolam solution. Air bubbles generated during mixing were removed by centrifugation. The final concentration of triazolam in the solvent mixture was assayed by an HPLC method. An Altex C18, 4.6×150 mm column was used. The mobile phase contained 60% of 0.05 M KH2 PO4 (pH=6.0, T. J. Baker) and 40% acetonitrile (Fisher Scientific). Flow rate of mobile phase was 1 ml/min. The wavelength used was 221 nm.
Using a metered dose inhaler, triazolam solution was sprayed into both nostrils of the dogs. The dose administered was determined by weighting the bottle containing the triazolam solution before and after spraying. […] Blood sampling times were the same as in the oral study. The plasma samples were frozen until GC assay for triazolam.
GC Assay: To extract triazolam, 0.5 ml of plasma, 50 μl of internal standard (55 ng/ml clonazepam in methanol) and 3 ml of hexane/methylene chloride (4:3) were vortexed together for 15 seconds and centrifuged for 4 minutes. The bottom aqueous layer was frozen by dry ice/acetone and the upper organic layer was transferred to another tube containing 1 ml of distilled water. The mixture was vortexed for 15 seconds and centrifuged for 4 minutes. Two ml of the upper organic layer was then pipetted into another tube and evaporated to dryness in an vortex-evaporator. […] of toluene was used for reconstitution.
The amount of triazolam in 3 ml of extract plasma was assayed by an HP model 5830A GC-EC. The glass column used was a 6'×1/4" 2 mm on column w/o liner 6" coil (Anspec) with 3% OV-17 […] and detector were 275°, 310° and 350° C., respectively. The flow rate for argon/methane (95:5) gas 42 ml/min.

[4] = dogs, nasal vs oral, dose-normalized
[5] = nasal spray, 12.1-14.5 mg as HCl, individual dog
[6] = nasal spray, 5.61-7.89 mg free base, individual dog
[7] = oral, 5 mg free base equivalent, individual dog

CCN(CC)CCN1C(=O)CN=C(c2ccccc2F)c2cc(Cl)ccc21 [flurazepam]
Tmax ([1]; dog, plasma, nasal spray, 12.1-14.5 mg as HCl, individual dog, read-out: TMAX NASAL (converted)): 15 min | Cmax ([1]; dog, plasma, nasal spray, 12.1-14.5 mg as HCl, mean of four dogs, read-out: CMAX NASAL (MEAN)): 73.3 ng/mL | half-life ([1]; dog, plasma, nasal spray, 12.1-14.5 mg as HCl, mean of four dogs, read-out: T1/2 NASAL (MEAN)): 168 min | Tmax ([1]; dog, plasma, nasal spray, 12.1-14.5 mg as HCl, mean of four dogs, read-out: TMAX NASAL (MEAN) (converted)): 15 min | Cmax ([1]; dog, plasma, po, 15 mg, oral, 15 mg flurazepam HCl, mean of four dogs, head marked *, read-out: CMAX PO (MEAN)): 4.97 ng/mL | Tmax ([1]; dog, plasma, po, 15 mg, oral, 15 mg flurazepam HCl, mean of four dogs, read-out: TMAX PO (MEAN) (converted)): 26.3 min | Tmax after nasal administration relative to oral route ([1]; dogs, nasal vs oral): half that of oral route | Plasma levels after nasal administration compared with oral ([1]; dogs, nasal vs oral, dose-corrected, FIG. 3): consistently higher | Mean increase in AUC after nasal administration [1, 4]: 51 fold | Cmax after oral administration lower than that of nasal route ([1]; dogs, oral vs nasal): 15 times | AUC NASAL ([1]; nasal spray, 12.1-14.5 mg as HCl, dose-normalized, individual dog): 922.3 ngmin/ml-mg and 384.9 ngmin/ml-mg and 287.4 ngmin/ml-mg and 314.9 ngmin/ml-mg | AUC NASAL (MEAN) ([1]; nasal spray, 12.1-14.5 mg as HCl, dose-normalized, mean of four dogs): 477.4 ngmin/ml-mg | CMAX NASAL [1, 5]: 161.5 ng/mL and 41.1 ng/mL and 31.5 ng/mL and 59.0 ng/mL | T1/2 NASAL [1, 5]: 214.7 min and 190.8 min and 163.3 min and 102.6 min | AUC PO ([1]; oral, 15 mg flurazepam HCl, dose-normalized, estimated up to last data point, individual dog): 8.60 ngmin/ml-mg and 19.30 ngmin/ml-mg and 4.81 ngmin/ml-mg and 20.00 ngmin/ml-mg | AUC PO (MEAN) ([1]; oral, 15 mg flurazepam HCl, dose-normalized, estimated up to last data point, mean of four dogs): 13.20 ngmin/ml-mg | TMAX PO ([1]; oral, 15 mg flurazepam HCl, individual dog): 45.0 min and 30.0 min | Hypnotic efficacy by oral administration (Wistar rats): the rats proved resistant

Cc1ncc2n1-c1ccc(Cl)cc1C(c1ccccc1F)=NC2 [midazolam]
half-life ([2]; nasal spray, 5.61-7.89 mg free base, individual dog, read-out: T1/2 NASAL): 36.1 min | Tmax ([2]; nasal spray, 5.61-7.89 mg free base, individual dog, read-out: TMAX NASAL (converted)): 15 min | Cmax ([2]; nasal spray, 5.61-7.89 mg free base, mean of four dogs, read-out: CMAX NASAL (MEAN)): 101 ng/mL | half-life ([2]; nasal spray, 5.61-7.89 mg free base, mean of four dogs, read-out: T1/2 NASAL (MEAN)): 33.3 min | Tmax ([2]; nasal spray, 5.61-7.89 mg free base, mean of four dogs, read-out: TMAX NASAL (MEAN) (converted)): 15 min | Cmax ([2]; po, 5 mg, oral, 5 mg free base equivalent, mean of four dogs, head marked *, read-out: CMAX PO (MEAN)): 24.5 ng/mL | half-life ([2]; po, 5 mg, oral, 5 mg free base equivalent, mean of four dogs, read-out: T1/2 PO (MEAN)): 33.2 min | Tmax ([2]; po, 5 mg, oral, 5 mg free base equivalent, mean of four dogs, read-out: TMAX PO (MEAN) (converted)): 30 min | Mean half-life in both routes of administration ([2]; dogs, nasal vs oral): about the same | Tmax after nasal administration earlier than after oral administration ([2]; dogs, nasal vs oral): 2 fold | Plasma levels after nasal administration compared with oral ([2]; dogs, nasal vs oral, dose-corrected, FIG. 2): consistently higher | Mean increase in AUC after nasal administration [2, 4]: 2.5 fold | Cmax after oral administration lower than that of nasal route ([2]; dogs, oral vs nasal): 4 times | AUC NASAL ([2]; nasal spray, 5.61-7.89 mg free base, dose-normalized, individual dog): 842.9 ngmin/ml-mg and 520.8 ngmin/ml-mg and 338.5 ngmin/ml-mg and 650.8 ngmin/ml-mg | AUC NASAL (MEAN) ([2]; nasal spray, 5.61-7.89 mg free base, dose-normalized, mean of four dogs): 588.3 ngmin/ml-mg | CMAX NASAL [2, 6]: 159.0 ng/mL and 111.2 ng/mL and 47.1 ng/mL and 87.9 ng/mL | T1/2 NASAL [2, 6]: 26.8 min and 36.5 min and 33.8 min | AUC PO ([2]; oral, 5 mg free base equivalent, dose-normalized, individual dog): 235.6 ngmin/ml-mg and 242.0 ngmin/ml-mg and 157.8 ngmin/ml-mg and 333.2 ngmin/ml-mg | AUC PO (MEAN) ([2]; oral, 5 mg free base equivalent, dose-normalized, mean of four dogs): 242.1 ngmin/ml-mg | T1/2 PO [2, 7]: 43.5 min and 50.6 min and 19.4 min and 19.3 min | TMAX PO [2, 7]: 15.0 min and 45.0 min and 30.0 min

Cc1nnc2n1-c1ccc(Cl)cc1C(c1ccccc1Cl)=NC2 [triazolam]
Cmax ([3]; CMAX NASAL (MEAN), nasal spray, 0.9343-1.532 mg, mean of four dogs, ng/ml): 27.6 ng/mL | Cmax ([3]; CMAX NASAL, nasal spray, 0.9343-1.532 mg, individual dog, ng/ml): 27.2 ng/mL | half-life ([3]; T1/2 NASAL (MEAN), nasal spray, 0.9343-1.532 mg, mean of four dogs): 57.3 min | half-life ([3]; T1/2 NASAL, nasal spray, 0.9343-1.532 mg, individual dog): 62.7 min | Tmax ([3]; TMAX NASAL (MEAN), nasal spray, 0.9343-1.532 mg, mean of four dogs, (min)): 18.8 min | Tmax ([3]; TMAX NASAL, nasal spray, 0.9343-1.532 mg, individual dog, (min)): 15 min | Tmax ([3]; Time of peak mean plasma concentration, nasal, dogs, mean): ~18.8 min | Cmax ([3]; po, 1 mg, CMAX PO (MEAN), two 0.5 mg tablets, mean of four dogs, ng/ml): 7 ng/mL | Cmax ([3]; po, 1 mg, CMAX PO, two 0.5 mg tablets, individual dog, ng/ml): 7.6 ng/mL | half-life ([3]; po, 1 mg, T1/2 PO (MEAN), two 0.5 mg tablets, mean of four dogs): 67.5 min | Tmax ([3]; po, 1 mg, TMAX PO (MEAN), two 0.5 mg tablets, mean of four dogs, (min)): 48.8 min | Tmax ([3]; po, 1 mg, TMAX PO, two 0.5 mg tablets, individual dog, (min)): 45 min | Tmax ([3]; po, 1 mg, Time of peak mean plasma concentration, dogs, mean): ~48.8 min | Nasal absorption ([3]; dogs, nasal): significant nasal absorption | Mean AUC after nasal administration larger than that of oral route ([3]; dogs, nasal vs oral): 2.4 fold | Mean half-life in both routes of administration ([3]; dogs, nasal vs oral): about the same | Plasma levels after nasal administration compared with oral ([3]; dogs, nasal vs oral, dose-corrected, FIG. 1): consistently higher | Variability of oral plasma concentration-time curve compared with nasal ([3]; dogs, oral vs nasal, FIG. 1, attributed to gastric emptying of the tablets): more variability | TMAX NASAL ([3]; nasal spray, 0.9343-1.532 mg, individual dog, (min)): 30.0 | CMAX NASAL ([3]; nasal spray, 0.9343-1.532 mg, individual dog, ng/ml): 31.20 and 25.20 and 26.60 | TMAX PO ([3]; oral, two 0.5 mg tablets, individual dog, (min)): 60.0 and 30.0 | CMAX PO ([3]; oral, two 0.5 mg tablets, individual dog, ng/ml): 6.10 and 5.50 and 8.70
